Structures can show the parent of a compound that is named as a salt.
Tests used:
penis = assay: Time to penile erection / firmness after taking the ED medication or formulation; format: in vivo, human; conditions: blood circulation limited to about 50%; for time it remains effective / time to become effective: normal dose of 100 mg Viagra® or 10 mg Levitra®, one subject
From the text: Responses of individuals to ED medications may vary widely from one to another and from time to time. The nature and intensity of emotional and physical stimulation are significant factors, and the health of the individual can be significant. Fatigue, time of day, time since last coitus or ejaculation, and blood circulation are factors influencing response. One particular subject had no response to Cialis®. Their heart damage and occluded artery limit blood circulation to about 50%. Thus this particular subject is not a good benchmark for measuring the effectiveness of each formulation; this particular subject experiences a normal dose of 100 mg Viagra® or 10 mg Levitra® usually takes about 2 hours to become effective and then remains effective for about 8 hours (double the usual times for a person with normal blood circulation). Nevertheless, this subject has achieved erection and cotius within 30 minutes using some formulations of this invention.

[1] = cited from earlier work
[2] = Solubilities of ED medications in solvents known to permeate the skin (Example 1); format: physicochemical
Procedure: A series of experiments were performed in order to learn the solubilities of ED medications in solvents known to permeate the skin safely.

[3] = Solubility of ED medications as stated in the description; format: physicochemical
From the text: In order for an ED medication to be absorbed into mucosal tissues, it must first be dissolved in a medium of transport. […] Sildenafil citrate is also more soluble in ethanol than water and in propylene glycol than in water.

SMILES | time it remains effective (penis) | time to become effective (penis) | solubility in alcohols (in words) ([1]; alcohols) | solubility in water (in words) [1] | response to ED medication (penis; one particular subject) | Result (solubility) ([2]; 35 mg sildenafil citrate in diethylene glycol monoethyl ether, 10 ml) | Result (solubility) ([2]; 35 mg sildenafil citrate in ethanol, 190 proof, 10 ml) | Result (solubility) ([2]; 35 mg sildenafil citrate in glycerin, 10 ml + citric acid, 150 mg) | Result (solubility) ([2]; 35 mg sildenafil citrate in isopropyl myristate, 10 ml) | Result (solubility) ([2]; 35 mg sildenafil citrate in propylene glycol, 10 ml) | Result (solubility) ([2]; 35 mg sildenafil citrate in triacetin 10 ml) | Result (solubility) ([2]; 49 mg sildenafil citrate in nicotine, 2 ml) | Result (solubility) ([2]; 70 mg sildenafil citrate in ethanol, 190 proof, 10 ml) | Result (solubility) ([2]; 70 mg sildenafil citrate in propylene glycol, 10 ml) | solubility in nicotine [3] | solubility in ethanol compared with water ([1]; ethanol versus water) | solubility in propylene glycol compared with water ([1]; propylene glycol versus water) | solubility in water relative to pH 7.0 ([1]; water at pH=4, relative to 3.5 mg/ml at pH=7.0) | solubility in water ([1]; water at pH=7.0)
CCCc1nc(C)c2c(=O)[nH]c(-c3cc(S(=O)(=O)N4CCN(CC)CC4)ccc3OCC)nn12 [Vardenafil, vardenafil hydrochloride] | about 8 hours | about 2 hours | freely soluble | freely soluble | – | – | – | – | – | – | – | – | – | – | – | – | – | – | –
CN1CC(=O)N2[C@H](c3ccc4c(c3)OCO4)c3[nH]c4ccccc4c3C[C@@H]2C1=O [Tadalafil, tadalafil] | – | – | – | freely soluble | no response | – | – | – | – | – | – | – | – | – | – | – | – | – | –
CCCc1nn(C)c2c(=O)[nH]c(-c3cc(S(=O)(=O)N4CCN(C)CC4)ccc3OCC)nc12.O=C(O)CC(O)(CC(=O)O)C(=O)O [sildenafil citrate] | about 8 hours | about 2 hours | – | – | – | slightly soluble | fully soluble | dispersion | mostly soluble | fully soluble | dispersion | fully soluble | fully soluble | mostly soluble | surprisingly high solubility | more soluble | more soluble | about triple | 3500 µg/mL
